# Results reported in patent US20240327413A1, “NLRP3 MODULATORS” (Zomagen Biosciences Ltd, priority 2021, published 2024).
# Read-outs that look alike come from different tables or passages of the source.
# Test system: IL-1b
# Assay: Human Monocyte IL-1b Assay (fresh human whole blood, LPS priming, ATP stimulation, ELISA)
# Assay type: cell-based
# Conditions: read-out: IL-1b (IC50)
# Procedure: Serially diluted testing compounds were incubated with […] of fresh human whole blood for 0.5 hours. Cells were primed with 100 ng/mL lipopolysaccharide (LPS) for 3.5 hours at 37° C. followed by stimulation with 5 mM ATP for an additional 45 minutes. The concentration of IL-1b concentration in the supernatant was determined with commercially available ELISA kits. Negative controls are wells without stimulation, while positive controls are wells with stimulation but only DMSO without compounds added. After background subtraction, compound treatment wells were then normalized to the positive controls for IC50 calculations.
# [1] = fresh human whole blood, 100 ng/mL LPS 3.5 hours, then 5 mM ATP 45 minutes, IL-1b in supernatant by ELISA
IC50 [1],Structure (SMILES),IC50 (Homo sapiens)
< 0.3 µM,"Cc1cc(O)c(-c2nnc(N[C@@H]3CCCN(C)C3)n3cccc23)c(F)c1 [Compound 14, (R)-3-fluoro-5-methyl-2-(4-((1-methylpiperidin-3-yl)amino)pyrrolo[1,2-d][1,2,4]triazin-1-yl)phenol]",–
< 0.3 µM,"Cc1cc(C)c(-c2nnc(N[C@@H]3CCCN(C)C3)n3cccc23)c(O)c1 [Compound 13, (R)-3,5-dimethyl-2-(4-((1-methylpiperidin-3-yl)amino)pyrrolo[1,2-d][1,2,4]triazin-1-yl)phenol]",–
< 0.3 µM,"CN1CCC[C@@H](Nc2nnc(-c3ccc(C(F)(F)F)cc3O)c3sccc23)C1 [Compound 20, (R)-2-(4-((1-methylpiperidin-3-yl)amino)thieno[2,3-d]pyridazin-7-yl)-5-(trifluoromethyl)phenol]",–
< 0.3 µM,"CN1CCC[C@@H](Nc2nnc(-c3ccc(C(F)(F)F)cc3O)c3cscc23)C1 [Compound 22, (R)-2-(4-((1-methylpiperidin-3-yl)amino)thieno[3,4-d]pyridazin-1-yl)-5-(trifluoromethyl)phenol]",–
< 0.3 µM,"Cc1ccc(-c2nnc(N[C@@H]3CCCN(C)C3)c3cscc23)c(O)c1 [Compound 21, (R)-5-methyl-2-(4-((1-methylpiperidin-3-yl)amino)thieno[3,4-d]pyridazin-1-yl)phenol]",–
0.3 to 3 µM,"CN1CCC[C@@H](Nc2nnc(-c3ccc4c(c3O)CCC4)c3cccn23)C1 [Compound 27, (R)-5-(4-((1-methylpiperidin-3-yl)amino)pyrrolo[1,2-d][1,2,4]triazin-1-yl)-2,3-dihydro-1H-inden-4-ol]",–
< 0.3 µM,"CN1CCC[C@@H](Nc2nnc(-c3ccc(C(F)(F)F)cc3O)c3ccsc23)C1 [Compound 19, (R)-2-(7-((1-methylpiperidin-3-yl)amino)thieno[2,3-d]pyridazin-4-yl)-5-(trifluoromethyl)phenol]",–
< 0.3 µM,"Cc1ccc(-c2nnc(N[C@@H]3CCCN(C)C3)n3cccc23)c(O)c1 [Compound 24, (R)-5-methyl-2-(4-((1-methylpiperidin-3-yl)amino)pyrrolo[1,2-d][1,2,4]triazin-1-yl)phenol]",–
0.3 to 3 µM,"Cc1cc(O)c(-c2nnc(N[C@@H]3CCCN(C)C3)n3cccc23)cc1F [Compound 26, (R)-4-fluoro-5-methyl-2-(4-((1-methylpiperidin-3-yl)amino)pyrrolo[1,2-d][1,2,4]triazin-1-yl)phenol]",–
< 0.3 µM,"Cc1ccc(-c2nnc(N[C@@H]3CCCN(C)C3)c3c2CCCC3)c(O)c1 [Compound 11, (R)-5-methyl-2-(4-((1-methylpiperidin-3-yl)amino)-5,6,7,8-tetrahydrophthalazin-1-yl)phenol]",–
0.3 to 3 µM,"Cc1ccc(-c2nnc(N(C)[C@@H]3CCCN(C)C3)c3ccccc23)c(O)c1 [Compound 12, (R)-5-methyl-2-(4-(methyl(1-methylpiperidin-3-yl)amino)phthalazin-1-yl)phenol]",–

# Second part, the compound before the results:
Structure (SMILES),IC50 [1],IC50 (Homo sapiens)
"Cc1cc(O)c(-c2nnc(N[C@@H]3CCCN(C)C3)c3ccccc23)cc1F [Compound 5, (R)-4-fluoro-5-methyl-2-(4-((1-methylpiperidin-3-yl)amino)phthalazin-1-yl)phenol]",< 0.3 µM,–
"Cc1ccc(-c2nnc(N[C@@H]3CCCN(C)C3)c3c2CCC3)c(O)c1F [Compound 10, (R)-2-fluoro-3-methyl-6-(4-((1-methylpiperidin-3-yl)amino)-6,7-dihydro-5H-cyclopenta[d]pyridazin-1-yl)phenol]",< 0.3 µM,–
"Cc1cc(C)c(-c2nnc(N[C@@H]3CCCN(C)C3)c3c2CCC3)c(O)c1 [Compound 7, 3,5-dimethyl-2-(4-(((R)-1-methylpiperidin-3-yl)amino)-6,7-dihydro-5H-cyclopenta[d]pyridazin-1-yl)phenol]",< 0.3 µM,–
"CN1CCC[C@@H](Nc2nnc(-c3ccc4c(c3O)CCC4)c3ccccc23)C1 [Compound 4, (R)-5-(4-((1-methylpiperidin-3-yl)amino)phthalazin-1-yl)-2,3-dihydro-1H-inden-4-ol]",< 0.3 µM,–
"CCOC(=O)c1cc(C)ccc1-c1nnc(N[C@@H]2CCCN(C)C2)c2ccccc12 [Compound 6, ethyl (R)-5-methyl-2-(4-((1-methylpiperidin-3-yl)amino)phthalazin-1-yl)benzoate]",3 to 10 µM,–
"Cc1cc(C)c(-c2nnc(N[C@@H]3CCCN(C)C3)c3ccccc23)c(O)c1 [Compound 1, 3,5-dimethyl-2-(4-(((R)-1-methylpiperidin-3-yl)amino)phthalazin-1-yl)phenol]",< 0.3 µM,–
"Cc1ccc(-c2nnc(OC3CCCN(C)C3)c3ccccc23)c(O)c1 (centres unmarked) [Compound 23, 5-methyl-2-(4-((1-methylpiperidin-3-yl)oxy)phthalazin-1-yl)phenol]",–,0.3 to 3 µM
"Cc1ccc(-c2nnc(N[C@@H]3CCCN(C)C3)c3c2CCC3)c(O)c1 [Compound 8, (R)-5-methyl-2-(4-((1-methylpiperidin-3-yl)amino)-6,7-dihydro-5H-cyclopenta[d]pyridazin-1-yl)phenol]",< 0.3 µM,–
"Cc1ccc(-c2nnc(N[C@@H]3CCCN(C)C3)c3ccccc23)c(O)c1 [Compound 2, (R)-5-methyl-2-(4-((1-methylpiperidin-3-yl)amino)phthalazin-1-yl)phenol]",< 0.3 µM,–
